Results published in ChEMBL document CHEMBL1151406, “An investigation of the antiviral activity of Podophyllum peltatum” (J Nat Prod, 1982).

Tests used:
[1] = system: Measles morbillivirus; assay: Antiviral activity against measles virus infected in african green monkey Vero cells assessed as plaque formation at 1 uM after 5 days by neutral red assay relative to control; assay type: functional
[2] = Cytotoxicity against african green monkey Vero cells assessed as cell viability at 1 uM by trypan blue exclusion assay; assay type: cell-based; conditions: chlorocebus sabaeus, read-out: Activity
[3] = system: Measles morbillivirus; assay: Antiviral activity against measles virus infected in african green monkey Vero cells assessed as cell rounding at 1 uM; assay type: functional
[4] = system: Human alphaherpesvirus 1; assay: Antiviral activity against HSV1 infected in african green monkey Vero cells assessed as plaque formation at 1 uM after 4 days by neutral red assay relative to control; assay type: functional
[5] = system: Measles morbillivirus; assay: Antiviral activity against measles virus infected in african green monkey Vero cells assessed as inhibition of virus-induced cytopathic effect at 1 uM; assay type: functional; parameters: scale not given: the % may be the effect or the level left
[6] = system: Vero; assay: Cytotoxicity against african green monkey Vero cells assessed as cell rounding at 1 uM; assay type: cell-based; conditions: chlorocebus sabaeus

Compound	Activity [1]	viability at 1 µM [2]	Activity [3]	Activity [4]	Activity [5]	Activity [6]
COc1cc([C@@H]2c3cc4c(c(O)c3C[C@H]3COC(=O)[C@@H]32)OCO4)cc(OC)c1O	47.5%	91.9%	>95%	31.1%	25%	5%
COc1cc([C@@H]2c3cc4c(cc3[C@H](O)[C@H]3COC(=O)[C@@H]23)OCO4)cc(OC)c1OC [AXL-1717]	41.5%	89.9%	5%	84.4%	100%	15%
COc1cc([C@@H]2c3cc4c(c(O)c3C[C@H]3COC(=O)[C@@H]32)OCO4)cc(OC)c1OC [BETA-PELTATIN A]	15.1%	85.4%	50%	21.7%	100%	5%
COc1cc([C@@H]2c3cc4c(cc3C[C@H]3COC(=O)[C@@H]32)OCO4)cc(OC)c1OC [DESOXYPODOPHYLLOTOXIN]	19.8%	90.7%	50%	16.2%	70%	30%
COc1cc([C@@H]2c3cc4c(cc3[C@H](O)[C@H]3COC(=O)[C@H]23)OCO4)cc(OC)c1OC [PODOFILOX]	0.9%	91.7%	>95%	11.7%	25%	80%
